Laboratory results published in patent publication US11753407B2, “Compounds for treating spinal muscular atrophy” (PTC Therapeutics, Inc., priority 2012, dated 2023).

Experiments:
[1] = tested on: SMN2 minigene mRNA (SMN2-A minigene) in HEK293H cells; test: SMN2 minigene mRNA splicing RT-qPCR assay in cultured cells; type: cell-based, human; details: Homo sapiens, HEK293-H; concentration increasing full length SMN2 mRNA 1.5-fold relative to vehicle-treated cells; HEK293H cells with SMN2-A minigene, 24 hours, 7-point concentration data; read-out: EC1.5x for production of full length SMN2 mRNA
Procedure, shortened: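 HEK293H cells stably carrying SMN2-A minigene treated with compounds (7-point, 3.16-fold dilutions, duplicates) for 24 h at 37 °C. Full-length exon 7-containing minigene mRNA measured by multiplex RT-qPCR with GAPDH, normalized and expressed relative to vehicle (modified ΔΔCt); EC1.5× is concentration giving 1.5-fold increase.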

[2] = tested on: Smn protein in SMA patient fibroblast cells (GM03813); test: Smn protein assay in cultured cells (SMN HTRF); type: cell-based, human; details: SMA patient fibroblast cells, 48 hours; for EC1.5x for Smn protein expression: 7-point concentration curve, SMN HTRF, concentration producing 1.5 times Smn protein vs DMSO vehicle control; for maximum fold (Fold) increase of Smn protein: 7-point concentration data, fold relative to vehicle control
Procedure, shortened: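 SMA patient fibroblasts (5,000/well, DMEM-10% FBS) treated 48 h at 37° C with 7-point, 3.16-fold compound series in triplicate; lysates read by SMN HTRF (665/620 nm ratio). Fold Smn increase over DMSO vehicle derived; EC1.5× is concentration giving 1.5-fold Smn, with maximum fold also reported.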

Row | melting point | SMILES | EC (1.5-fold increase) [1] | EC1.5x for Smn protein expression [2] | maximum fold (Fold) increase of Smn protein [2]
1 | 244 to 246 °C | Cc1cn2nc(-c3cc(=O)n4cc(N5CC[C@@H](CN)C5)ccc4n3)cc2c(C)n1 [Cpd 764, 7-[(3S)-3-(aminomethyl)pyrrolidin-1-yl]-2-(4,6-dimethylpyrazolo[1,5-a]pyrazin-2-yl)-4H-pyrido[1,2-a]pyrimidin-4-one] | 1 to 3 µM | * (An EC1.5× for Smn protein expression between >3 μM and ≤10 μM is indicated by one star (*)) | *** (a fold increase between >1.35 and ≤1.5 is indicated by three stars (***))
2 | 136 to 138 °C | Cc1cn2nc(-c3cc(=O)n4cc(CCCN(C)C)ccc4n3)cc2c(C)n1 [Cpd 769, 7-[3-(dimethylamino)propyl]-2-(4,6-dimethylpyrazolo[1,5-a]pyrazin-2-yl)-4H-pyrido[1,2-a]pyrimidin-4-one] | 0.1 to 0.3 µM | *** (an EC1.5× between >0.3 μM and ≤1 μM is indicated by three stars (***)) | ***** (a fold increase >1.65 is indicated by five stars (*****))
3 | 228 to 231 °C | Cc1cn2nc(-c3cc(=O)n4cc(C5=C[C@H](C)N[C@@H](C)C5)ccc4n3)cc2c(C)n1 [Cpd 798, 2-(4,6-dimethylpyrazolo[1,5-a]pyrazin-2-yl)-7-[(2S,6S)-2,6-dimethyl-1,2,3,6-tetrahydropyridin-4-yl]-4H-pyrido[1,2-a]pyrimidin-4-one] | < 0.1 µM | **** (an EC1.5x≤0.3 μM is indicated by four stars (****)) | ***** (a fold increase >1.65 is indicated by five stars (*****))

Continued, compound first:

Row | SMILES | melting point | EC (1.5-fold increase) [1] | EC1.5x for Smn protein expression [2] | maximum fold (Fold) increase of Smn protein [2]
4 | Cc1cn2cc(-c3cc(=O)n4cc(N5CCNCC5)ccc4n3)cc(CO)c2n1 [Cpd 674, 2-[8-(hydroxymethyl)-2-methylimidazo[1,2-a]pyridin-6-yl]-7-(piperazin-1-yl)-4H-pyrido[1,2-a]pyrimidin-4-one] | > 320 °C | < 0.1 µM | **** (an EC1.5x≤0.3 μM is indicated by four stars (****)) | ***** (a fold increase >1.65 is indicated by five stars (*****))
5 | Cc1cn2nc(-c3cc(=O)n4cc(N5CCNCC5)ccc4n3)cc2c(N(C)C)n1 [Cpd 688, 2-[4-(dimethylamino)-6-methylpyrazolo[1,5-a]pyrazin-2-yl]-7-(piperazin-1-yl)-4H-pyrido[1,2-a]pyrimidin-4-one] | 245 to 248 °C | 1 to 3 µM | ** (an EC1.5× between >1 μM and ≤3 μM is indicated by two stars (**)) | *** (a fold increase between >1.35 and ≤1.5 is indicated by three stars (***))
6 | CCc1nc(C)cn2nc(-c3cc(=O)n4cc(C5CCN(C(CO)CO)CC5)ccc4n3)cc12 [Cpd 694, 7-[1-(1,3-dihydroxypropan-2-yl)piperidin-4-yl]-2-(4-ethyl-6-methylpyrazolo[1,5-a]pyrazin-2-yl)-4H-pyrido[1,2-a]pyrimidin-4-one] | 228 to 230 °C | < 0.1 µM | **** (an EC1.5x≤0.3 μM is indicated by four stars (****)) | ***** (a fold increase >1.65 is indicated by five stars (*****))
7 | Cc1cn2cc(-c3cc(=O)n4cc(N5CCNCC5)ccc4n3)cc(C3CC3)c2n1 [Cpd 714, 2-(8-cyclopropyl-2-methylimidazo[1,2-a]pyridin-6-yl)-7-(piperazin-1-yl)-4H-pyrido[1,2-a]pyrimidin-4-one] | 274 to 277 °C | < 0.1 µM | **** (an EC1.5x≤0.3 μM is indicated by four stars (****)) | ***** (a fold increase >1.65 is indicated by five stars (*****))
